Experimental data from patent US10894787B2, “Modulators of the GPR119 receptor and the treatment of disorders related thereto” (Arena Pharmaceuticals, Inc., priority 2010, dated 2021).

Test system: male diabetic ZDF rats
Assay: Oral glucose tolerance test (oGTT) in male diabetic ZDF rats
Format: in vivo, rat
Conditions: for Plasma Glucose Mean: N = 6; for % Inhibition of Glucose Excursion: AUC reduction relative to vehicle control, ZDF rats
Procedure: Male ZDF rats were fasted for 18 h and randomly grouped (n=6) to receive a GPR119 agonist, (Compound 1), at 0.3, 3, 10, or 30 mg/kg (mg compound per kg body weight). The compound was delivered orally via a gavage needle (p.o., volume 4 mL/kg) 60 min prior to glucose bolus (3 g/kg) (time=−60 min in FIG. 1), with a separate group receiving vehicle (20% hydroxypropyl-beta-cyclodextrin) as control. At time 0 min the glucose bolus was administered. Levels of blood glucose were assessed using a glucometer (One-Touch Ultra™ LifeScan) at time −60 minute (prior to compound administration), at 0 min (at time when glucose bolus was given), and at 30, 60, 90, and 120 min post glucose bolus. Glucose excursion (AUC (area under the curve) reduction) in compound treated animals relative to vehicle control is shown in FIG. 2 and Table 2.

CN(C)C(=O)c1ccc(Nc2ncnc(N3CCC(c4nc(C(C)(C)F)no4)CC3)c2F)c(F)c1 [Compound 1, 3-fluoro-4-(5-fluoro-6-(4-(3-(2-fluoropropan-2-yl)-1,2,4-oxadiazol-5-yl)piperidin-1-yl)pyrimidin-4-ylamino)-N,N-dimethylbenzamide]
Plasma Glucose Mean (0.3 mg/kg p.o. 60 min prior to glucose bolus, time 0 min): 89.7 mg/dL | Plasma Glucose Mean (0.3 mg/kg p.o., 30 min post glucose bolus): 201.7 mg/dL | Plasma Glucose Mean (0.3 mg/kg p.o., 60 min post glucose bolus): 192.2 mg/dL | Plasma Glucose Mean (0.3 mg/kg p.o., 90 min post glucose bolus): 185.3 mg/dL | Plasma Glucose Mean (0.3 mg/kg p.o., 120 min post glucose bolus): 154.8 mg/dL | % Inhibition of Glucose Excursion (0.3 mg/kg p.o.): 6.5% | Plasma Glucose Mean (0.3 mg/kg p.o., time -60 min (prior to compound administration)): 106.3 mg/dL | Plasma Glucose Mean (3.0 mg/kg p.o. 60 min prior to glucose bolus, time 0 min): 82.7 mg/dL | Plasma Glucose Mean (3.0 mg/kg p.o., 30 min post glucose bolus): 184.5 mg/dL | Plasma Glucose Mean (3.0 mg/kg p.o., 60 min post glucose bolus): 144.2 mg/dL | Plasma Glucose Mean (3.0 mg/kg p.o., 90 min post glucose bolus): 151.2 mg/dL | Plasma Glucose Mean (3.0 mg/kg p.o., 120 min post glucose bolus): 146.2 mg/dL | % Inhibition of Glucose Excursion (3 mg/kg p.o.): 47.0% | Plasma Glucose Mean (3.0 mg/kg p.o., time -60 min (prior to compound administration)): 110.0 mg/dL | Plasma Glucose Mean (10.0 mg/kg p.o. 60 min prior to glucose bolus, time 0 min): 76.0 mg/dL | Plasma Glucose Mean (10.0 mg/kg p.o., 30 min post glucose bolus): 174.0 mg/dL | Plasma Glucose Mean (10.0 mg/kg p.o., 60 min post glucose bolus): 135.8 mg/dL | Plasma Glucose Mean (10.0 mg/kg p.o., 90 min post glucose bolus): 141.3 mg/dL | Plasma Glucose Mean (10.0 mg/kg p.o., 120 min post glucose bolus): 132.5 mg/dL | % Inhibition of Glucose Excursion (10 mg/kg p.o.): 60.1% | Plasma Glucose Mean (10.0 mg/kg p.o., time -60 min (prior to compound administration)): 108.7 mg/dL | Plasma Glucose Mean (30.0 mg/kg p.o. 60 min prior to glucose bolus, time 0 min): 93.0 mg/dL | Plasma Glucose Mean (30.0 mg/kg p.o., 30 min post glucose bolus): 197.0 mg/dL | Plasma Glucose Mean (30.0 mg/kg p.o., 60 min post glucose bolus): 124.8 mg/dL | Plasma Glucose Mean (30.0 mg/kg p.o., 90 min post glucose bolus): 135.8 mg/dL | Plasma Glucose Mean (30.0 mg/kg p.o., 120 min post glucose bolus): 130.2 mg/dL | % Inhibition of Glucose Excursion (30 mg/kg p.o.): 52.1% | Plasma Glucose Mean (30.0 mg/kg p.o., time -60 min (prior to compound administration)): 104.8 mg/dL | Effect on blood glucose after a challenge with glucose (diabetic ZDF rats, 0.3-30 mg/kg p.o.): lowered blood glucose
